According to ChEMBL document CHEMBL1126778, “Adenosine A1 antagonists. 3. Structure-activity relationships on amelioration against scopolamine- or N6-((R)-phenylisopropyl)adenosine-induced cognitive disturbance” (J Med Chem, 1993):
“And” between values parts separate entries of the source, which are not always exact repeats. Equal values may be shown once.

What was measured:
[1] = biological target: Adenosine A2 receptor (Rattus norvegicus, UniProt P29276+P30543); assay: Binding affinity at Adenosine A2 receptor from rat striatal membranes by N-[3H] ethyladenosin-5'- uronamide displacement.
[2] = system: Mus musculus; assay: Acquisition time in (R)-PIA) induced avoidance test (performed in mice) for antagonistic activity after peroral administration of 0.08 mg/kg; type: functional; details: route oral
[3] = system: Mus musculus; assay: Acquisition time in (R)-PIA) induced avoidance test (performed in mice) for antagonistic activity after p.o. administration of 0.31 mg/kg; type: functional; details: route oral
[4] = system: Mus musculus; assay: Acquisition time in (R)-PIA) induced avoidance test (performed in mice) for antagonistic activity after p.o. administration of 1.25 mg/kg; type: functional; details: route oral
[5] = system: Mus musculus; assay: Retention time in (R)-PIA) induced avoidance test (performed in mice) for antagonistic activity after p.o. administration of 1.25 mg/kg; type: functional, organism-based; set-up: dose 1.25 mg/kg
[6] = system: Mus musculus; assay: Retention time in (R)-PIA) induced avoidance test (performed in mice) for antagonistic activity after peroral administration of 5 mg/kg; type: functional, organism-based; set-up: dose 5 mg/kg
[7] = system: Mus musculus; assay: Retention time in (R)-PIA) induced avoidance test (performed in mice) for antagonistic activity after peroral administration of 0.08 mg/kg; type: functional, organism-based; set-up: dose 0.08 mg/kg
[8] = system: Mus musculus; assay: Retention time in (R)-PIA) induced avoidance test (performed in mice) for antagonistic activity after peroral administration of 0.31 mg/kg; type: functional, organism-based; set-up: dose 0.31 mg/kg
[9] = system: Rattus norvegicus; assay: Acquisition time in Scopolamine induced avoidance test (performed in rat) for antagonistic activity after peroral administration of 20 mg/kg; type: functional; details: route oral
[10] = system: Rattus norvegicus; assay: Acquisition time in Scopolamine induced avoidance test (performed in rat) for antagonistic activity after p.o. administration of 0.08 mg/kg; type: functional; details: route oral
[11] = system: Rattus norvegicus; assay: Acquisition time in Scopolamine induced avoidance test (performed in rat) for antagonistic activity after p.o. administration of 0.31 mg/kg; type: functional; details: route oral
[12] = system: Rattus norvegicus; assay: Acquisition time in Scopolamine induced avoidance test (performed in rat) for antagonistic activity after p.o. administration of 5 mg/kg; type: functional; details: route oral
[13] = system: Rattus norvegicus; assay: Retention time in Scopolamine induced avoidance test (performed in […]) for antagonistic activity after peroral administration of 5 mg/kg; type: functional, organism-based; set-up: dose 5 mg/kg
[14] = system: Rattus norvegicus; assay: Retention time in Scopolamine induced avoidance test (performed in rat) for antagonistic activity after p.o. administration of 0.08 mg/kg; type: functional, organism-based; set-up: dose 0.08 mg/kg
[15] = system: Rattus norvegicus; assay: Retention time in Scopolamine induced avoidance test (performed in rat) for antagonistic activity after p.o. administration of 0.31 mg/kg; type: functional, organism-based; set-up: dose 0.31 mg/kg
[16] = system: Rattus norvegicus; assay: Retention time in Scopolamine induced avoidance test (performed in rat) for antagonistic activity after peroral administration of 1.25 mg/kg; type: functional, organism-based; set-up: dose 1.25 mg/kg
[17] = system: Rattus norvegicus; assay: Retention time in Scopolamine induced avoidance test (performed in rat) for antagonistic activity after peroral administration of 20 mg/kg (n=19); type: functional, organism-based; set-up: dose 20 mg/kg
[18] = system: Mus musculus; assay: Acquisition time in (R)-PIA) induced avoidance test (performed in mice) for antagonistic activity after peroral administration of 5 mg/kg; type: functional; details: route oral
[19] = system: Rattus norvegicus; assay: Acquisition time in Scopolamine induced avoidance test (performed in rat) for antagonistic activity after peroral administration of 1.25 mg/kg (n=20); type: functional; details: route oral
[20] = system: Mus musculus; assay: Retention time in (R)-PIA) induced avoidance test (performed in mice) for antagonistic activity after peroral administration of 0.02 mg/kg
[21] = system: Mus musculus; assay: Acquisition time in (R)-PIA) induced avoidance test (performed in mice) for antagonistic activity after peroral administration of 0.02 mg/kg; details: route oral
[22] = system: Mus musculus; assay: Tested for locomotor activity after oral administration of 5 mg/kg for 120 min; type: functional
[23] = system: Mus musculus; assay: Tested for locomotor activity after oral administration of 1.25 mg/kg for 120 min; type: functional
[24] = system: Rattus norvegicus; assay: Acquisition time in Scopolamine induced avoidance test (performed in rat) for antagonistic activity after peroral administration of 1.25 mg/kg; type: functional; details: route oral
[25] = system: Rattus norvegicus; assay: Retention time in Scopolamine induced avoidance test (performed in rat) for antagonistic activity after peroral administration of 20 mg/kg (n=10); type: functional, organism-based; set-up: dose 20 mg/kg
[26] = biological target: T1, Adenosine receptor A1 (Cavia porcellus, UniProt P47745); assay: Binding affinity against Adenosine A1 receptor from guinea pig forebrain membranes by N6-[3H]- cyclohexyladenosine displacement.
T1 sequence (P47745 whole entry): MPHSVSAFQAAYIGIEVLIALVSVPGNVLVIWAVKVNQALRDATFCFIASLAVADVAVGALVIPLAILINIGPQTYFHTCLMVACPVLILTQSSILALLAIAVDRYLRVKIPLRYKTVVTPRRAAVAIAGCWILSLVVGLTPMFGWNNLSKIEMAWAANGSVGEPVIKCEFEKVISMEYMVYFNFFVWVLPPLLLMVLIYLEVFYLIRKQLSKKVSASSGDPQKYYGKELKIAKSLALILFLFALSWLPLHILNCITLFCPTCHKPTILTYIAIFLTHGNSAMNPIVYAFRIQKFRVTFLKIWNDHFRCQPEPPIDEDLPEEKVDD

[27] = biological target: Adenosine receptor A1, Rattus norvegicus (UniProt P25099); assay: Binding affinity against Adenosine A1 receptor from rat forebrain membranes with N6-[3H]- cyclohexyladenosine
Chain of Adenosine receptor A1, Rattus norvegicus (P25099 whole entry, looked up): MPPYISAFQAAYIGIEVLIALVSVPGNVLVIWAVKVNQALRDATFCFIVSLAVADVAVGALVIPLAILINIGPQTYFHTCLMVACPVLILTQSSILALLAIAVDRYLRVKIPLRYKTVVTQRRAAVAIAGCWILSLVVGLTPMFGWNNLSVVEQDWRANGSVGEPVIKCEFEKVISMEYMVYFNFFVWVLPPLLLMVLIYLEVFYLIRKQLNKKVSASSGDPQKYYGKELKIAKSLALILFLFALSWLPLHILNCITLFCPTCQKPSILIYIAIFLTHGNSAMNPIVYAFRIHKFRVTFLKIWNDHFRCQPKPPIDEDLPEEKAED

[28] = biological target: Adenosine A2 receptor (Homo sapiens, UniProt P29275+P29274); assay: Binding affinity against Adenosine A2 receptor from human platelets with [125I]-N6-aminobenzyladenosine
[29] = system: Mus musculus; assay: Acquisition time in (R)-PIA) induced avoidance test (performed in mice) for antagonistic activity after peroral administration of 20 mg/kg (n=15); type: functional; details: route oral
[30] = system: Mus musculus; assay: Retention time in (R)-PIA) induced avoidance test (performed in mice) for antagonistic activity after peroral administration of 20 mg/kg (n=15) (P<0.005); type: functional, organism-based; set-up: dose 20 mg/kg
[31] = system: Mus musculus; assay: Tested for locomotor activity after oral administration of 10 mg/kg for 120 min; type: functional
[32] = system: Mus musculus; assay: Tested for locomotor activity after oral administration of […] for 120 min; type: functional
[33] = system: Mus musculus; assay: Tested for locomotor activity after oral administration of 40 mg/kg for 120 min; type: functional
[34] = system: Rattus norvegicus; assay: Acquisition time in Scopolamine induced avoidance test (performed in rat) for antagonistic activity after peroral administration of 1.25 mg/kg (n=12); type: functional; details: route oral
[35] = system: Rattus norvegicus; assay: Acquisition time in Scopolamine induced avoidance test (performed in rat) for antagonistic activity after peroral administration of 0.02 mg/kg; type: functional; details: route oral
[36] = system: Rattus norvegicus; assay: Retention time in Scopolamine induced avoidance test (performed in […]) for antagonistic activity after peroral administration of 1.25 mg/kg (n=12) (P<0.01); type: functional, organism-based; set-up: dose 1.25 mg/kg
[37] = system: Rattus norvegicus; assay: Retention time in Scopolamine induced avoidance test (performed in rat) for antagonistic activity after peroral administration of 0.02 mg/kg; type: functional, organism-based; set-up: dose 0.02 mg/kg
[38] = system: Rattus norvegicus; assay: Retention time in Scopolamine induced avoidance test (performed in rat) for antagonistic activity after peroral administration of 5 mg/kg; type: functional, organism-based; set-up: dose 5 mg/kg

Structure (SMILES)	Ki [1] [nM]	Acquisition time [2] [s]	Acquisition time [3] [s]	Acquisition time [4] [s]	Retention time [5]	Retention time [6] [s]	Retention time [7] [s]	Retention time [8] [s]	Acquisition time [9] [s]	Acquisition time [10] [s]	Acquisition time [11] [s]	Acquisition time [12] [s]	Retention time [13] [s]	Retention time [14] [s]	Retention time [15] [s]	Retention time [16] [s]	Acquisition time [18] [s]	Retention time [20] [s]	Acquisition time [21] [s]	other results
CCCn1c(=O)c2nc(C3CCC(=O)C3)[nH]c2n(CCc2ccc(N)cc2)c1=O (stereo unspecified)	> 100000	16.4	17.5	14.6	19.1 s	67.7	18.7	23.4	13.6	10.5	13.1	10.2	108	119	109	163	12.9	73.9	14.2	Retention time [17]: 117 s; Acquisition time [19]: 12.1 s
CCCN1C(=O)N2CC(CC)N=C2c2[nH]c(C34CC5CC(CC3C5)C4)nc21 (racemic)	–	23.5	22.7	21.2	231 s	277	196	292	26.6	21.3	17.3	22.5	66.3	251	221	40.8	24.9	168	23	Locomotor activity [22]: 6907 Counts; Locomotor [23]: 5761 Counts; Acquisition time [24]: 14.1 s; Retention time [25]: 21 s
CCCn1c(=O)c2[nH]c(C3CCCC3)nc2n(CCc2ccc(N)cc2)c1=O	–	–	–	–	–	–	–	–	–	–	–	–	–	–	–	–	–	–	–	Ki [26]: 5.6 nM; Ki [27]: 0.23 nM
CCCn1c(=O)c2nc(C3CCCC3)[nH]c2n(CCc2ccc(N)cc2)c1=O	430	21.2	–	–	152 s and 177 s	–	–	113	–	20.8	11.1	12.3	–	160	255	–	–	–	–	Ki [28]: 2000 nM; Acquisition time ([4]; 1.25 mg/kg): 28.7 s and 23.1 s; Acquisition time [29]: 23.5 s; Retention time [30]: 318 s; Locomotor activity [31]: 6693 Counts; Locomotor activity [32]: 6224 Counts; Locomotor activity [33]: 5867 Counts; Acquisition time [34]: 18.3 s; Acquisition time [35]: 25.7 s; Retention time [36]: 384 s; Retention time [37]: 151 s; Retention time [38]: 255 s
